# From patent US10743540B2, “3-amino-1,2,4-triazine derivatives and their use for controlling undesired plant growth” (BAYER CROPSCIENCE AKTIENGESELLSCHAFT, priority 2016, dated 2020)
# Tests used:
# Assay type in all cases: in vivo
# [1] = test system: POLCO: Polygonum convolvulus; test: Pre-emergence herbicidal effect; settings: application rate 320 g/ha, scored visually after 3 weeks, 100% = plants have died, 0% = like control plants
# How it was run: (§1)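 Herbicidal activity is given as percent visual damage relative to untreated plants after a 3-week greenhouse period. Treatment was a surface spray of WP or EC formulations over sown, soil-covered seeds.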
# [2] = test system: ECHCG: Echinochloa crus-galli; test: Pre-emergence herbicidal effect; settings: application rate 320 g/ha, scored visually after 3 weeks, 100% = plants have died, 0% = like control plants
# How it was run: as §1
# [3] = test system: STEME: Stellaria media; test: Pre-emergence herbicidal effect; settings: application rate 320 g/ha, scored visually after 3 weeks, 100% = plants have died, 0% = like control plants
# How it was run: as §1
# [4] = test system: MATIN: Matricaria inodora; test: Pre-emergence herbicidal effect; settings: application rate 320 g/ha, scored visually after 3 weeks, 100% = plants have died, 0% = like control plants
# How it was run: as §1
# [5] = test system: LOLMU: Lolium multiflorum; test: Pre-emergence herbicidal effect; settings: application rate 320 g/ha, scored visually after 3 weeks, 100% = plants have died, 0% = like control plants
# How it was run: as §1
# [6] = test system: ALOMY: Alopecurus myosuroides; test: Pre-emergence herbicidal effect; settings: application rate 320 g/ha, scored visually after 3 weeks, 100% = plants have died, 0% = like control plants
# How it was run: as §1
# [7] = test system: SETVI: Setaria viridis; test: Pre-emergence herbicidal effect; settings: application rate 320 g/ha, scored visually after 3 weeks, 100% = plants have died, 0% = like control plants
# How it was run: as §1
# [8] = test system: ABUTH: Abutilon theophrasti; test: Pre-emergence herbicidal effect; settings: application rate 320 g/ha, scored visually after 3 weeks, 100% = plants have died, 0% = like control plants
# How it was run: as §1
# [9] = test system: VERPE: Veronica persica; test: Pre-emergence herbicidal effect; settings: application rate 320 g/ha, scored visually after 3 weeks, 100% = plants have died, 0% = like control plants
# How it was run: as §1
# [10] = test system: ECHCG: Echinochloa crus-galli; test: Post-emergence herbicidal effect; settings: application rate 320 g/ha, treated at one-leaf stage, assessed visually after about 3 weeks, 100% = plants have died
# How it was run: (§2)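 Greenhouse foliar spray, one-leaf stage; WP/EC formulation in water at 600 to 800 L/ha + 0.2% wetting agent. Visual % rating ~3 wk post-treatment vs untreated (100% = plants dead, 0% = as control).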
# [11] = test system: STEME: Stellaria media; test: Post-emergence herbicidal effect; settings: application rate 320 g/ha, treated at one-leaf stage, assessed visually after about 3 weeks, 100% = plants have died
# How it was run: as §2
# [12] = test system: ALOMY: Alopecurus myosuroides; test: Post-emergence herbicidal effect; settings: application rate 320 g/ha, treated at one-leaf stage, assessed visually after about 3 weeks, 100% = plants have died
# How it was run: as §2
# [13] = test system: AMARE: Amaranthus retroflexus; test: Post-emergence herbicidal effect; settings: application rate 320 g/ha, treated at one-leaf stage, assessed visually after about 3 weeks, 100% = plants have died
# How it was run: as §2
# [14] = test system: VIOTR: Viola tricolor; test: Post-emergence herbicidal effect; settings: application rate 320 g/ha, treated at one-leaf stage, assessed visually after about 3 weeks, 100% = plants have died
# How it was run: as §2
# [15] = test system: VERPE: Veronica persica; test: Post-emergence herbicidal effect; settings: application rate 320 g/ha, treated at one-leaf stage, assessed visually after about 3 weeks, 100% = plants have died
# How it was run: as §2
smiles,measurement,setting,value
Cc1ccc2c(c1)[C@H](Nc1nnc(C(F)(F)F)c(N)n1)CCC2 [Example 1.52],Herbicidal activity with respect to [%] POLCO,[1],100%
same,Herbicidal activity with respect to [%] ECHCG,[2],100%
same,Herbicidal activity with respect to [%] STEME,[3],100%
same,Herbicidal activity with respect to [%] MATIN,[4],100%
same,Herbicidal activity with respect to [%] LOLMU,[5],100%
same,Herbicidal activity with respect to [%] ALOMY,[6],100%
same,Herbicidal activity with respect to [%] SETVI,[7],100%
same,Herbicidal activity with respect to [%] ABUTH,[8],100%
same,Herbicidal activity with respect to [%] VERPE,[9],100%
same,Herbicidal activity with respect to [%] ECHCG,[10],100%
same,Herbicidal activity with respect to [%] STEME,[11],100%
same,Herbicidal activity with respect to [%] ALOMY,[12],100%
same,Herbicidal activity with respect to [%] AMARE,[13],100%
same,Herbicidal activity with respect to [%] VIOTR,[14],90%
same,Herbicidal activity with respect to [%] VERPE,[15],90%
Nc1nc(N[C@@H]2CCc3ccccc32)nnc1C(F)(F)F [Example 1.24],Herbicidal activity with respect to [%] POLCO,[1],100%
same,Herbicidal activity with respect to [%] ECHCG,[2],100%
same,Herbicidal activity with respect to [%] STEME,[3],100%
same,Herbicidal activity with respect to [%] MATIN,[4],100%
same,Herbicidal activity with respect to [%] LOLMU,[5],100%
same,Herbicidal activity with respect to [%] ALOMY,[6],100%
same,Herbicidal activity with respect to [%] SETVI,[7],100%
same,Herbicidal activity with respect to [%] ABUTH,[8],80%
same,Herbicidal activity with respect to [%] VERPE,[9],100%
same,Herbicidal activity with respect to [%] ECHCG,[10],100%
same,Herbicidal activity with respect to [%] STEME,[11],100%
same,Herbicidal activity with respect to [%] ALOMY,[12],100%
same,Herbicidal activity with respect to [%] AMARE,[13],90%
same,Herbicidal activity with respect to [%] VIOTR,[14],100%
same,Herbicidal activity with respect to [%] VERPE,[15],100%
CC(=O)c1nnc(N[C@@H]2CCc3ccc(C)cc32)nc1N [Example 1.72],Herbicidal activity with respect to [%] POLCO,[1],100%
same,Herbicidal activity with respect to [%] ECHCG,[2],100%
same,Herbicidal activity with respect to [%] STEME,[3],100%
same,Herbicidal activity with respect to [%] MATIN,[4],100%
same,Herbicidal activity with respect to [%] LOLMU,[5],100%
same,Herbicidal activity with respect to [%] ALOMY,[6],100%
same,Herbicidal activity with respect to [%] SETVI,[7],100%
same,Herbicidal activity with respect to [%] ABUTH,[8],100%
same,Herbicidal activity with respect to [%] VERPE,[9],100%
same,Herbicidal activity with respect to [%] ECHCG,[10],100%
same,Herbicidal activity with respect to [%] STEME,[11],100%
same,Herbicidal activity with respect to [%] ALOMY,[12],100%
same,Herbicidal activity with respect to [%] AMARE,[13],90%
same,Herbicidal activity with respect to [%] VIOTR,[14],90%
same,Herbicidal activity with respect to [%] VERPE,[15],80%
Cc1ccc2c(c1)[C@H](Nc1nnc(C(F)(F)F)c(N)n1)CC2 [Example 1.67],Herbicidal activity with respect to [%] POLCO,[1],100%
same,Herbicidal activity with respect to [%] ECHCG,[2],100%
same,Herbicidal activity with respect to [%] STEME,[3],100%
same,Herbicidal activity with respect to [%] MATIN,[4],100%
same,Herbicidal activity with respect to [%] LOLMU,[5],100%
same,Herbicidal activity with respect to [%] ALOMY,[6],100%
same,Herbicidal activity with respect to [%] SETVI,[7],100%
same,Herbicidal activity with respect to [%] ABUTH,[8],80%
same,Herbicidal activity with respect to [%] VERPE,[9],100%
same,Herbicidal activity with respect to [%] ECHCG,[10],100%
same,Herbicidal activity with respect to [%] STEME,[11],100%
same,Herbicidal activity with respect to [%] ALOMY,[12],90%
same,Herbicidal activity with respect to [%] AMARE,[13],100%
same,Herbicidal activity with respect to [%] VIOTR,[14],100%
same,Herbicidal activity with respect to [%] VERPE,[15],90%
Cc1ccc2c(c1)[C@H](Nc1nnc(C#N)c(N)n1)CC2 [Example 1.70],Herbicidal activity with respect to [%] POLCO,[1],100%
same,Herbicidal activity with respect to [%] ECHCG,[2],100%
same,Herbicidal activity with respect to [%] STEME,[3],100%
same,Herbicidal activity with respect to [%] MATIN,[4],100%
same,Herbicidal activity with respect to [%] LOLMU,[5],100%
same,Herbicidal activity with respect to [%] ALOMY,[6],100%
same,Herbicidal activity with respect to [%] SETVI,[7],100%
same,Herbicidal activity with respect to [%] ABUTH,[8],100%
same,Herbicidal activity with respect to [%] VERPE,[9],100%
same,Herbicidal activity with respect to [%] ECHCG,[10],100%
same,Herbicidal activity with respect to [%] STEME,[11],100%
same,Herbicidal activity with respect to [%] ALOMY,[12],100%
same,Herbicidal activity with respect to [%] AMARE,[13],90%
same,Herbicidal activity with respect to [%] VIOTR,[14],90%
same,Herbicidal activity with respect to [%] VERPE,[15],100%
Cc1ccc2c(c1)[C@H](Nc1nnc(C#N)c(N)n1)[C@@H](C)C2 [Example 1.25],Herbicidal activity with respect to [%] POLCO,[1],100%
same,Herbicidal activity with respect to [%] ECHCG,[2],100%
same,Herbicidal activity with respect to [%] STEME,[3],100%
same,Herbicidal activity with respect to [%] MATIN,[4],100%
same,Herbicidal activity with respect to [%] LOLMU,[5],100%
same,Herbicidal activity with respect to [%] ALOMY,[6],100%
same,Herbicidal activity with respect to [%] SETVI,[7],100%
same,Herbicidal activity with respect to [%] ABUTH,[8],100%
same,Herbicidal activity with respect to [%] VERPE,[9],100%
same,Herbicidal activity with respect to [%] ECHCG,[10],100%
same,Herbicidal activity with respect to [%] STEME,[11],100%
same,Herbicidal activity with respect to [%] ALOMY,[12],100%
same,Herbicidal activity with respect to [%] AMARE,[13],90%
same,Herbicidal activity with respect to [%] VIOTR,[14],90%
same,Herbicidal activity with respect to [%] VERPE,[15],100%
Cc1ccc2c(c1)[C@H](Nc1nnc([S+](C)[O-])c(N)n1)[C@@H](C)C2 (stereo partly drawn) [Example 1.44],Herbicidal activity with respect to [%] POLCO,[1],100%
same,Herbicidal activity with respect to [%] ECHCG,[2],100%
same,Herbicidal activity with respect to [%] STEME,[3],100%
same,Herbicidal activity with respect to [%] MATIN,[4],100%
same,Herbicidal activity with respect to [%] LOLMU,[5],100%
same,Herbicidal activity with respect to [%] ALOMY,[6],100%
same,Herbicidal activity with respect to [%] SETVI,[7],100%
same,Herbicidal activity with respect to [%] ABUTH,[8],100%
same,Herbicidal activity with respect to [%] VERPE,[9],100%
same,Herbicidal activity with respect to [%] ECHCG,[10],90%
same,Herbicidal activity with respect to [%] STEME,[11],90%
same,Herbicidal activity with respect to [%] ALOMY,[12],100%
same,Herbicidal activity with respect to [%] AMARE,[13],100%
same,Herbicidal activity with respect to [%] VIOTR,[14],90%
same,Herbicidal activity with respect to [%] VERPE,[15],100%
Cc1ccc2c(c1)[C@H](Nc1nnc(C(F)(F)F)c(N)n1)[C@@H](C)C2 [Example 1.23],Herbicidal activity with respect to [%] POLCO,[1],100%
same,Herbicidal activity with respect to [%] ECHCG,[2],100%
same,Herbicidal activity with respect to [%] STEME,[3],100%
same,Herbicidal activity with respect to [%] MATIN,[4],100%
same,Herbicidal activity with respect to [%] LOLMU,[5],90%
same,Herbicidal activity with respect to [%] ALOMY,[6],100%
same,Herbicidal activity with respect to [%] SETVI,[7],100%
same,Herbicidal activity with respect to [%] ABUTH,[8],100%
same,Herbicidal activity with respect to [%] VERPE,[9],100%
same,Herbicidal activity with respect to [%] ECHCG,[10],100%
same,Herbicidal activity with respect to [%] STEME,[11],100%
same,Herbicidal activity with respect to [%] ALOMY,[12],100%
same,Herbicidal activity with respect to [%] AMARE,[13],100%
same,Herbicidal activity with respect to [%] VIOTR,[14],100%
same,Herbicidal activity with respect to [%] VERPE,[15],90%
Cc1ccc2c(c1)[C@H](Nc1nnc([S+](C)[O-])c(N)n1)CC2 (stereo partly drawn) [Example 1.71],Herbicidal activity with respect to [%] POLCO,[1],100%
same,Herbicidal activity with respect to [%] ECHCG,[2],100%
same,Herbicidal activity with respect to [%] STEME,[3],100%
same,Herbicidal activity with respect to [%] MATIN,[4],100%
same,Herbicidal activity with respect to [%] LOLMU,[5],100%
same,Herbicidal activity with respect to [%] ALOMY,[6],100%
same,Herbicidal activity with respect to [%] SETVI,[7],100%
same,Herbicidal activity with respect to [%] ABUTH,[8],100%
same,Herbicidal activity with respect to [%] VERPE,[9],100%
same,Herbicidal activity with respect to [%] ECHCG,[10],100%
same,Herbicidal activity with respect to [%] STEME,[11],100%
same,Herbicidal activity with respect to [%] ALOMY,[12],90%
same,Herbicidal activity with respect to [%] AMARE,[13],80%
same,Herbicidal activity with respect to [%] VIOTR,[14],90%
same,Herbicidal activity with respect to [%] VERPE,[15],80%
